Measurements: patent US7749760B2, “Vγ9Vδ2 T cell proliferation agent, method for producing activated Vγ9Vδ2 T cells, and uses thereof” (Hyogo College of Medicine, priority 2008, dated 2010)

System: Vγ9Vδ2 T cells
Test: Production of IFN-γ, TNF and GM-CSF, ELISA of culture supernatants
Assay type: cell-based, human
Description: Supernatants of the culture solutions having various conditions under which Vγ9Vδ2 T cells were cultured were assayed by ELISA so that the production of cytokines (e.g., IFN-γ, TNF, GM-CSF) was measured.
The Vγ9Vδ2 T cells were restimulated both in the presence of IL-18 and in the absence of IL-18. After 24 hours, a supernatant of the culture solution containing IL-18 and a supernatant of the culture solution devoid of IL-18 were compared. In this case also, the result obtained was similar to the above.

[1] = purified activated Vγ9Vδ2 T cells restimulated, 24 hours

IL-18: interleukin 18, cytokine, IFN-γ inducing factor, obtained from GlaxoSmithKline K.K.
production of GM-CSF, supernatant supplemented with IL-18 versus without (data not shown): about 10 times | production of IFN-γ, presence versus absence of IL-18 [1]: far larger production | production of TNFα, presence versus absence of IL-18 [1]: far larger production
